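96-well plates; 48 h exposure; 5 concentrations. Endpoints by linear interpolation between flanking doses. Not reached: highest tested concentration assigned. GI50 = concentration required for 50% inhibition of growth. The concentration for full growth arrest is given as TGI.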
Assays:
Assay in all cases: NCI-60 cell line screen, 48 h
OVCAR-4 ovarian = system: OVCAR-4 ovarian
HS 578T breast = system: HS 578T breast
SK-MEL-28 melanoma = system: SK-MEL-28 melanoma
MALME-3M melanoma = system: MALME-3M melanoma
HT29 colon = system: HT29 colon
CCRF-CEM leukemia = system: CCRF-CEM leukemia
MDA-MB-435 = system: MDA-MB-435
CAKI-1 renal = system: CAKI-1 renal
A498 renal = system: A498 renal
EKVX NSCLC = system: EKVX NSCLC

SMILES: CC(=O)OCC1OC(n2c(-c3ccccc3)c(N=Nc3ccccc3)c(C)c(C#N)c2=S)C(OC(C)=O)C(OC(C)=O)C1OC(C)=O (stereo unspecified)
- TGI (OVCAR-4 ovarian): > 100 µM
- TGI (HS 578T breast): > 100 µM
- TGI (SK-MEL-28 melanoma): > 100 µM
- TGI (MALME-3M melanoma): > 100 µM
- TGI (HT29 colon): > 100 µM
- TGI (CCRF-CEM leukemia): > 100 µM
- TGI (MDA-MB-435): > 100 µM
- TGI (CAKI-1 renal): > 100 µM

SMILES: COC(=O)C(=O)C(C(=O)C(=O)Nc1cccc(C(C)=O)c1)c1nc2ccccc2[nH]c1=O (stereo unspecified)
- TGI (OVCAR-4 ovarian): > 100 µM
- TGI (SK-MEL-28 melanoma): > 100 µM
- TGI (MALME-3M melanoma): > 100 µM
- TGI (HT29 colon): > 100 µM
- TGI (A498 renal): > 100 µM
- TGI (CCRF-CEM leukemia): > 100 µM
- TGI (EKVX NSCLC): > 100 µM
- TGI (CAKI-1 renal): > 100 µM

SMILES: COc1cc(C(=O)Oc2ccc3c(c2)OCO3)cc(OC)c1OC
- TGI (OVCAR-4 ovarian): > 100 µM
- TGI (HS 578T breast): > 100 µM
- TGI (SK-MEL-28 melanoma): > 100 µM
- TGI (MALME-3M melanoma): > 100 µM
- TGI (HT29 colon): > 100 µM
- TGI (A498 renal): > 100 µM
- TGI (MDA-MB-435): > 100 µM
- TGI (CAKI-1 renal): > 100 µM

SMILES: Cc1cc2ncn(C3CCCCO3)c2cc1C (stereo unspecified)
- TGI (OVCAR-4 ovarian): > 100 µM
- TGI (HS 578T breast): > 100 µM
- TGI (SK-MEL-28 melanoma): > 100 µM
- TGI (MALME-3M melanoma): > 100 µM
- TGI (HT29 colon): > 100 µM
- TGI (CCRF-CEM leukemia): > 100 µM
- TGI (MDA-MB-435): > 100 µM
- TGI (EKVX NSCLC): > 100 µM
- TGI (CAKI-1 renal): > 100 µM

SMILES: c1cncc(CC2(c3cc4ccccc4[nH]3)OCCO2)c1
- TGI (OVCAR-4 ovarian): > 100 µM
- TGI (HS 578T breast): > 100 µM
- TGI (SK-MEL-28 melanoma): > 100 µM
- TGI (MALME-3M melanoma): > 100 µM
- TGI (HT29 colon): > 100 µM
- TGI (A498 renal): > 100 µM
- TGI (CCRF-CEM leukemia): > 100 µM
- TGI (MDA-MB-435): > 100 µM
- TGI (CAKI-1 renal): > 100 µM

SMILES: COc1ccc(Nc2nc(N)c(C(=O)c3c[nH]c4ccccc34)s2)cc1
- TGI (OVCAR-4 ovarian): > 100 µM
- TGI (SK-MEL-28 melanoma): > 91.6 µM
- TGI (MALME-3M melanoma): 21.6 µM
- TGI (HT29 colon): 4.57 µM
- TGI (A498 renal): 16.3 µM
- TGI (CCRF-CEM leukemia): 6.02 µM
- TGI (EKVX NSCLC): > 100 µM
- TGI (CAKI-1 renal): > 100 µM

SMILES: Cn1c(=O)c2c(nc3n(Cc4ccccc4)c(=O)c(NCCCBr)cn23)n(C)c1=O
- TGI (OVCAR-4 ovarian): > 100 µM
- TGI (HS 578T breast): > 100 µM
- TGI (SK-MEL-28 melanoma): > 100 µM
- TGI (HT29 colon): > 100 µM
- TGI (A498 renal): > 100 µM
- TGI (CCRF-CEM leukemia): > 100 µM
- TGI (MDA-MB-435): > 100 µM
- TGI (EKVX NSCLC): > 100 µM
- TGI (CAKI-1 renal): > 100 µM

SMILES: S=C(N/N=C\C(=N/NC(=S)N1CCCCC1)c1ccccc1)N1CCCCC1
- TGI (OVCAR-4 ovarian): 3.43 µM
- TGI (HS 578T breast): 5.23 µM
- TGI (SK-MEL-28 melanoma): 3.65 µM
- TGI (MALME-3M melanoma): 3.57 µM
- TGI (HT29 colon): 4.61 µM
- TGI (A498 renal): 3.18 µM
- TGI (MDA-MB-435): 3.68 µM
- TGI (EKVX NSCLC): 3.31 µM
- TGI (CAKI-1 renal): 4.66 µM

SMILES: COc1ccc(-c2c3c(n(C4OC(CO)C(O)C(O)C4O)c(=S)c2C#N)CCC3)cc1 (stereo unspecified)
- TGI (OVCAR-4 ovarian): > 100 µM
- TGI (HS 578T breast): > 100 µM
- TGI (SK-MEL-28 melanoma): > 100 µM
- TGI (MALME-3M melanoma): > 100 µM
- TGI (HT29 colon): > 100 µM
- TGI (CCRF-CEM leukemia): > 100 µM
- TGI (MDA-MB-435): > 100 µM
- TGI (CAKI-1 renal): > 100 µM

SMILES: COc1ccc(OC2OC(CO)C(OCc3ccccc3)C(OCc3ccccc3)C2OCc2ccccc2)cc1 (stereo unspecified)
- TGI (HS 578T breast): > 100 µM
- TGI (SK-MEL-28 melanoma): > 100 µM
- TGI (MALME-3M melanoma): > 100 µM
- TGI (HT29 colon): > 100 µM
- TGI (A498 renal): > 100 µM
- TGI (CCRF-CEM leukemia): > 100 µM
- TGI (MDA-MB-435): > 100 µM
- TGI (EKVX NSCLC): > 100 µM
- TGI (CAKI-1 renal): > 100 µM

SMILES: COC(=O)C1CCc2sc3ncnc(Nc4cn[nH]c4C(=O)Nc4ccc(CN5CCN(C)CC5)cc4)c3c21 (stereo unspecified)
- GI50 (OVCAR-4 ovarian): 0.906 µM
- TGI (OVCAR-4 ovarian): > 100 µM
- GI50 (HS 578T breast): 0.54 µM
- TGI (HS 578T breast): 12.7 µM
- GI50 (MALME-3M melanoma): 1.98 µM
- TGI (MALME-3M melanoma): 3.78 µM
- GI50 (HT29 colon): 0.619 µM
- TGI (HT29 colon): 2.91 µM
- GI50 (A498 renal): 0.218 µM
- TGI (A498 renal): 1.8 µM
- GI50 (CCRF-CEM leukemia): 0.29 µM
- TGI (CCRF-CEM leukemia): 2.98 µM
- GI50 (MDA-MB-435): 1.06 µM
- TGI (MDA-MB-435): 3.38 µM
- GI50 (EKVX NSCLC): 0.838 µM
- TGI (EKVX NSCLC): 14 µM

Source: PubChem BioAssay (NCI)
